Key:
Test in all cases: relative viability (nuclei count vs DMSO), 5 days (fraction); higher = more cells survive
[1] = compound: CCN(CC)CCNC(=O)c1c(C)[nH]c(/C=C2\C(=O)Nc3ccc(F)cc32)c1C [Sunitinib] + C[C@]1(O)C[C@@H](c2nc(-c3ccc4ccc(-c5ccccc5)nc4c3)c3c(N)nccn32)C1 [Linsitinib] (partner 1 µM)
Procedure, shortened: (§1)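 Relative viability equals treated-well nuclei counts divided by vehicle-well nuclei counts. Counts came from 4× images of lung cancer cell lines grown in 1536-well plates for 5 days after pin-tool dosing on the day after seeding. Dosing used one drug alone or a fixed anchor-drug dose plus five library-drug doses (not always all listed) in √10 steps, and values are medians of duplicate plates.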

[2] = compound: CCN(CC)CCNC(=O)c1c(C)[nH]c(/C=C2\C(=O)Nc3ccc(F)cc32)c1C [Sunitinib] + Cc1nc(NC(=O)N2CCC[C@H]2C(N)=O)sc1-c1ccnc(C(C)(C)C(F)(F)F)c1 [Alpelisib] (partner 2 µM)
Procedure, shortened: as §1

[3] = compound: CCN(CC)CCNC(=O)c1c(C)[nH]c(/C=C2\C(=O)Nc3ccc(F)cc32)c1C [Sunitinib] + O=C(CCCCCCC(=O)Nc1ccccc1)NO [Vorinostat] (partner 1 µM)
Procedure, shortened: as §1

[4] = compound: CCN(CC)CCNC(=O)c1c(C)[nH]c(/C=C2\C(=O)Nc3ccc(F)cc32)c1C [Sunitinib] + CC1(C)CCC(c2ccc(Cl)cc2)=C(CN2CCN(c3ccc(C(=O)NS(=O)(=O)c4ccc(N[C@H](CCN5CCOCC5)CSc5ccccc5)c(S(=O)(=O)C(F)(F)F)c4)cc3)CC2)C1 [Navitoclax] (partner 0.5 µM)
Procedure, shortened: as §1

Row | Cell Line | relative viability ([1]; first compound 0.02 µM) | relative viability ([1]; first compound 0.06325 µM) | relative viability ([1]; first compound 0.2 µM) | relative viability ([1]; first compound 0.6325 µM) | relative viability ([2]; first compound 0.02 µM) | relative viability ([2]; first compound 0.06325 µM) | relative viability ([2]; first compound 0.2 µM) | relative viability ([2]; first compound 0.6325 µM) | relative viability ([2]; first compound 2 µM) | relative viability ([3]; first compound 0.02 µM) | relative viability ([3]; first compound 0.06325 µM) | relative viability ([3]; first compound 0.2 µM) | relative viability ([3]; first compound 0.6325 µM) | relative viability ([4]; first compound 0.02 µM) | relative viability ([4]; first compound 0.06325 µM) | relative viability ([4]; first compound 0.2 µM) | relative viability ([4]; first compound 0.6325 µM) | relative viability ([4]; first compound 2 µM) | relative viability ([1]; first compound 2 µM) | relative viability ([3]; first compound 2 µM)
1 | NCI-H1666 | 0.701 | 0.815 | 0.971 | 0.827 | 0.865 | 0.938 | 1.03 | 1.02 | 0.971 | 1.12 | 1.06 | 1.11 | 0.996 | 1.03 | 0.921 | 1.22 | 0.836 | 0.96 |  | 
2 | NCI-H520 | 0.86 | 1.15 | 0.911 | 0.975 | 1.01 | 0.841 | 0.867 |  | 0.729 | 0.694 | 0.793 | 0.569 | 0.674 |  | 1.11 | 1.21 | 1.02 | 0.897 | 1.01 | 0.578
3 | A-427 | 1.1 | 1.18 | 1.12 | 1.15 | 1.06 | 1.06 | 1.15 | 1.08 | 1.05 | 0.871 | 0.915 | 0.912 | 0.887 | 0.954 | 0.987 | 0.999 | 1 | 1.12 | 1.12 | 0.898
4 | NCI-H23 | 0.552 | 0.6 | 0.605 | 0.674 | 0.568 | 0.747 | 0.751 | 0.828 | 0.692 | 0.625 | 0.841 | 0.686 | 0.665 | 0.806 | 0.879 | 0.899 | 1.07 | 0.66 | 0.554 | 0.674

From the supplement of paper PMC10307832
